This is an account of results in patent publication US7998965B2, “Glutamate aggrecanase inhibitors” (Wyeth LLC, priority 2005, dated 2011).

Assay [1] addresses T1, recombinant human catalytic domain of MMP-13 (Homo sapiens, UniProt P45452).
T1 construct: catalytic domain of MMP-13 (165 amino acids, residues 104-268, 19 kDa)
Put plainly: In vitro fluorescence assay of MMP-13 activity. It counts as biochemical. The note with it: Table 1; unit inferred.

The target of another assay is T2, recombinant human MMP-2 (Homo sapiens, UniProt P08253).
T2 sequence (P08253 110-660): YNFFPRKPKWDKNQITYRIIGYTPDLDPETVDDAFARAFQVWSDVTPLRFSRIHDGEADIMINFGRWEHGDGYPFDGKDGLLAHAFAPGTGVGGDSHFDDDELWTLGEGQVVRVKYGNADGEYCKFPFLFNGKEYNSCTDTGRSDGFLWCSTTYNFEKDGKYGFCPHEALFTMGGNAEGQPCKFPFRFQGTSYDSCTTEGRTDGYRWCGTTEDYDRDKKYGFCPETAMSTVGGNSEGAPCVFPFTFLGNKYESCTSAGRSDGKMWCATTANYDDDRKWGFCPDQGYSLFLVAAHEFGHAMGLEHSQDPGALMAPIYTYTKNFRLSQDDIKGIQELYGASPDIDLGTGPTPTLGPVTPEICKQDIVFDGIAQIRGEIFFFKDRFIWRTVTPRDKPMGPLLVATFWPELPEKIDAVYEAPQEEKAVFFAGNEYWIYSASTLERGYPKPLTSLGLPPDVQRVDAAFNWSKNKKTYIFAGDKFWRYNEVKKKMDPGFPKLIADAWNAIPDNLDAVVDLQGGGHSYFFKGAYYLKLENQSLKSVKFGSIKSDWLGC
In words: In vitro fluorescence assay of MMP-2 activity.

Assay [2] deals with T3, recombinant human catalytic domain of MMP-14 (Homo sapiens, UniProt P50281).
T3 construct: 177 amino acids corresponding to Tyr89-Gly265 of mature human enzyme; purchased Chemicon International, Inc. CC1041
Put plainly: In vitro fluorescence assay of MMP-14 activity. The assay is classed as biochemical. The note with it: Table 1; for pIC50: unit inferred.

For assay [3], the target named is T4, purified recombinant human Aggrecanase-1 (rAgg1) (Homo sapiens, UniProt O75173).
T4 sequence (O75173 213-837): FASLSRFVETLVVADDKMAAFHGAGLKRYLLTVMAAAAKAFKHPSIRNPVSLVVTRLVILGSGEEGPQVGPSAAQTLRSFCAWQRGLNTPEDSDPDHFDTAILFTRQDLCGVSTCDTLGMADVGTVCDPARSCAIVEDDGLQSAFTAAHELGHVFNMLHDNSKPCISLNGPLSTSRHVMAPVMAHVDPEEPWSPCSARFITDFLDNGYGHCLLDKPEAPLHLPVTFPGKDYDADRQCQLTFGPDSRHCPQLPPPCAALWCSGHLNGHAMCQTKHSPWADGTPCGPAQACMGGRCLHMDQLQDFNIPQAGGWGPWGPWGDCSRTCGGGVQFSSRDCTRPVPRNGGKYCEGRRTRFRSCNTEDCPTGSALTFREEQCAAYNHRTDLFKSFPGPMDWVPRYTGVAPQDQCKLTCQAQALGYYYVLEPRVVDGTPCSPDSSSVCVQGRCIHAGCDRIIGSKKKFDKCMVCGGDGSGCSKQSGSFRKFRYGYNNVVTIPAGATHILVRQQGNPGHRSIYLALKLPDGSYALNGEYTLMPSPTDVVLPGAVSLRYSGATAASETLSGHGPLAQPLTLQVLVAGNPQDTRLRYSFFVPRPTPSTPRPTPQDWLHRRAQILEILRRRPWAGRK
Put plainly: In vitro fluorescence screen for Aggrecanase-1 inhibitors. The assay is classed as biochemical. The settings on record: Table 1; for pIC50: read-out: Agg1 IC50; for pKi: enzyme not given, column follows Agg1 IC50, read-out: Ki.

For assay [4], the target named is T5, purified recombinant human Aggrecanase-2 (Ag2t-Phe628-Strep) (Homo sapiens, UniProt Q9UNA0).
T5 construct: the form used is denoted as Ag2t-Phe628-Strep (MW=41,737)
T5 sequence (Q9UNA0 262-628): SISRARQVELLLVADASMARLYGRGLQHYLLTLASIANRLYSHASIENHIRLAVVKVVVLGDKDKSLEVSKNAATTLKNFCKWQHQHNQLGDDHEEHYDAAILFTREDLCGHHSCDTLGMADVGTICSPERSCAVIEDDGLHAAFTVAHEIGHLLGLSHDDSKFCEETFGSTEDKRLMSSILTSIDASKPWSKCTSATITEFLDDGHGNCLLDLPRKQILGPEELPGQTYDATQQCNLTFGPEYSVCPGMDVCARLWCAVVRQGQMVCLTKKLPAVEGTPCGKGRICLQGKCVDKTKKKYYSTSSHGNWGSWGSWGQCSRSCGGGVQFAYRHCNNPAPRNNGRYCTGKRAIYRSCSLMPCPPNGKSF
In words: In vitro fluorescence screen for Aggrecanase-2 inhibitors. The assay is classed as biochemical. The note with it: Table 1; read-out: Agg 2 IC50.

The target in the next assay is T6, MMP-1 (Homo sapiens, UniProt P03956).
T6 sequence (P03956 100-469): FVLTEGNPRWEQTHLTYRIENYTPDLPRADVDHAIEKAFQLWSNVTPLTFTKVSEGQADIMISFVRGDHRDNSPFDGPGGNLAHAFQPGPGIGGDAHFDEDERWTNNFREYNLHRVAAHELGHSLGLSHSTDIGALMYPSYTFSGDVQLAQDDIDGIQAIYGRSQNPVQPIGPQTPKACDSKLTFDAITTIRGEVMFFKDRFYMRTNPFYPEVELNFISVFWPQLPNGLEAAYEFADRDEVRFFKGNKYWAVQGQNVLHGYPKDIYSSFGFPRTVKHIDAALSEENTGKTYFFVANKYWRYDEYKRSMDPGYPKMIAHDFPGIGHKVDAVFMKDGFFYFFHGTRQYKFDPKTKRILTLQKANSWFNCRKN
In words: MMP-1 of Table 1. It counts as biochemical. The note with it: for MMP-1: unit not given; for pIC50: unit inferred.

Usually pKi stands for −log10 of the Ki, conventionally taken in molar units.

Structures are written as SMILES. pIC50, pKi: −log10 of the molar value. Read-outs that look alike come from different tables or passages of the source.

In the case of `CCCNC(=O)[C@H](CCC(=O)O)NC(=O)c1ccc(-c2ccccc2)cc1` [Example 8YYY, N^2-(biphenyl-4-ylcarbonyl)-N^1-propyl-L-α-glutamine], the pIC50 is under 4.30 in assay [1]; 5.03 at recombinant human MMP-2; under 3.70 in assay [2]; 7.00 in assay [3]; 5.80 in assay [4]. At MMP-1, the MMP-1 result is on record as “no inh”.
Regarding `CC(C)(Cc1ccccc1)NC(=O)[C@H](CCC(=O)O)NC(=O)c1ccc(-c2ccccc2)cc1` [Example 8PP, N^2-(biphenyl-4-ylcarbonyl)-N^1-(1,1-dimethyl-2-phenylethyl)-L-α-glutamine], the pIC50 was about 4.30 in assay [1]; 5.22 on recombinant human MMP-2; under 4.18 in assay [2]; over 7.52 in assay [3]; 7.07 in assay [4]; under 3.70 against MMP-1. In assay [3], the pKi was 8.00.
As to `COc1cc(CNC(=O)[C@H](CCC(=O)NO)NC(=O)c2ccc(-c3ccccc3)cc2)cc(OC)c1OC` [Example 33A, N^2-(1,1′-biphenyl-4-ylcarbonyl)-N^5-hydroxy-N^1-(3,4,5-trimethoxybenzyl)-L-α-glutamamide], the pIC50 in assay [1] was 7.49; on recombinant human MMP-2 (read-out: MMP-2, Table 1, unit inferred) it was 8.33; in assay [2], 6.95; in assay [3], over 8.00; in assay [4] it was 8.59; on MMP-1, 5.76.
As for `CC(C)(Cc1ccc(F)cc1)NC(=O)C(CCC(=O)O)NC(=O)c1ccc(-c2ccccc2)cc1` (racemic) [Example 8GGGG, N^2-(biphenyl-4-ylcarbonyl)-N^1-[2-(4-fluorophenyl)-1,1-dimethylethyl]-α-glutamine], the pIC50 is under 4.30 in assay [1], 4.73 on recombinant human MMP-2, 7.52 in assay [3] and 6.80 in assay [4]. For the same compound, the MMP-14 entry in assay [2] (unit not given) was “no inh”. For the same compound, the MMP-1 entry at MMP-1 was “no inh”.
As to `CC(C)(C)CNC(=O)[C@H](CCC(=O)O)NC(=O)c1ccc(-c2ccccc2)cc1` [Example 8UUU, N^2-(biphenyl-4-ylcarbonyl)-N^1-(2,2-dimethylpropyl)-L-α-glutamine], the pIC50 in assay [1] is about 4.30; at recombinant human MMP-2, 5.05; in assay [2] it was under 3.70; in assay [3] it was 7.21; in assay [4] it was 6.18. Moreover, the pKi in assay [3] is 7.22. At MMP-1, the MMP-1 entry is recorded as “no inh”.
Consider `O=C(O)CC[C@H](NC(=O)c1ccc(-c2ccccc2)cc1)C(=O)NCCc1ccc(F)cc1` [Example 8SS, N^2-(biphenyl-4-ylcarbonyl)-N^1-[2-(4-fluorophenyl)ethyl]-L-α-glutamine], for which the pIC50 in assay [1] was about 4.30; at recombinant human MMP-2 it was 4.91; in assay [2], under 4.18; in assay [3] it was 7.00; in assay [4] it was 6.10. The MMP-1 result on MMP-1 was “no inh”.
As to `O=C(O)CC[C@H](NC(=O)c1ccc(-c2ccccc2)cc1)C(=O)NCc1ccc(Cl)c(Cl)c1` [Example 8BB, N^2-(1,1′-biphenyl-4-ylcarbonyl)-N^1-(3,4-dichlorobenzyl)-L-α-glutamine], the pIC50 was 4.72 in assay [1]; 5.64 at recombinant human MMP-2; about 4.60 in assay [2]; 7.13 in assay [3]; 6.19 in assay [4]. The MMP-1 entry at MMP-1 is listed as “no inh”.
In the case of `COc1ccc(CNC(=O)[C@H](CCC(=O)O)NC(=O)c2ccc(-c3ccccc3)cc2)c(OC)c1` [Example 8Y, N^2-(1,1′-biphenyl-4-ylcarbonyl)-N^1-(2,4-dimethoxybenzyl)-L-α-glutamine], the pIC50 in assay [1] is about 4.17; on recombinant human MMP-2, 5.26; in assay [2], about 4.60; in assay [3], 7.30; in assay [4], 6.28. Moreover, the MMP-1 entry on MMP-1 is “no inh”.
In the case of `COc1ccccc1CNC(=O)[C@H](CCC(=O)O)NC(=O)c1ccc(-c2ccccc2)cc1` [Example 8Z, N^2-(1,1′-biphenyl-4-ylcarbonyl)-N^1-(2-methoxybenzyl)-L-α-glutamine], the pIC50 in assay [1] is about 4.17; on recombinant human MMP-2, 5.42; in assay [2] it was about 4.60; in assay [3] it was 7.10; in assay [4], 6.17. In addition, the MMP-1 result at MMP-1 is listed as “no inh”.
`O=C(CC[C@H](NC(=O)c1ccc(-c2ccccc2)cc1)C(=O)NCc1cccc(OC(F)(F)F)c1)NO` [Example 33D, N^2-(1,1′-biphenyl-4-ylcarbonyl)-N^5-hydroxy-N^1-[3-(trifluoromethoxy)benzyl]-L-α-glutamamide]: the pIC50 in assay [1] is 7.28; at recombinant human MMP-2 it was 8.48; in assay [2] it was 7.13; in assay [3], over 8.00; in assay [4], 7.87; against MMP-1, about 5.81.
As for `O=C(O)CC[C@H](NC(=O)c1ccc(-c2ccccc2)cc1)C(=O)NCc1ccc(Oc2ccccc2)cc1` [Example 8W, N^2-(1,1′-biphenyl-4-ylcarbonyl)-N^1-(4-phenoxybenzyl)-L-α-glutamine], the pIC50 in assay [1] is about 4.66; at recombinant human MMP-2 it was about 5.60; in assay [2] it was about 4.60; in assay [3], 7.12; in assay [4] it was 6.01. In addition, the MMP-1 entry on MMP-1 is “no inh”.
For `COc1cccc(CCNC(=O)[C@H](CCC(=O)O)NC(=O)c2ccc(-c3ccccc3)cc2)c1` [Example 8X, N^2-(1,1′-biphenyl-4-ylcarbonyl)-N^1-[2-(3-methoxyphenyl)ethyl]-L-α-glutamine], the pIC50 in assay [1] is about 4.17; at recombinant human MMP-2, 5.15; in assay [2], about 4.60; in assay [3] it was 7.00; in assay [4] it was 5.96. On MMP-1, the MMP-1 entry was “no inh”.
With `CCCCCCNC(=O)[C@H](CCC(=O)O)NC(=O)c1ccc(-c2ccccc2)cc1` [Example 8VVV, N^2-(biphenyl-4-ylcarbonyl)-N^1-hexyl-L-α-glutamine], the pIC50 in assay [1] was about 4.30; on recombinant human MMP-2 it was 5.25; in assay [2], under 4.18; in assay [3], 7.52; in assay [4], 6.38. The pKi in assay [3] was 7.42. Moreover, the MMP-1 result on MMP-1 is on record as “no inh”.
